Columns and labels:
Human whole blood = experiment: IRAK4 Whole Blood Assay (TLR2 agonist lipoteichoic acid induced IL-6); type: cell-based; details: 10 μg/mL lipoteichoic acid (TLR2 agonist), 5 hours, IL-6 levels
Method: Human whole blood containing the anti-coagulant ACD-A was plated in 384-well plate (25 μL/well) and incubated with compounds for 60 minutes at 37° C. in a 5% CO2 incubator. The blood was stimulated with a TLR2 agonist, 10 μg/mL final concentration of lipoteichoic acid (Invivogen, San Diego, Calif.) in 25 μL RPMI (Gibco) for 5 hours in a 5% CO2 incubator. At the end of the incubation, plates were centrifuged at 2300 rpm for 5 minutes. Supernatants were harvested and analyzed for IL-6 levels by Flow Cytometry beads assay (BD Biosciences, San Jose, Calif.).

IRAK4 = IRAK4 (Homo sapiens (Human), UniProt Q9NWZ3); experiment: IRAK4 Inhibition Assay; type: biochemical; details: ATP 500 μM; IRAK4 0.6 nM; 60 min room temperature
Chain of IRAK4 (Q9NWZ3 whole entry): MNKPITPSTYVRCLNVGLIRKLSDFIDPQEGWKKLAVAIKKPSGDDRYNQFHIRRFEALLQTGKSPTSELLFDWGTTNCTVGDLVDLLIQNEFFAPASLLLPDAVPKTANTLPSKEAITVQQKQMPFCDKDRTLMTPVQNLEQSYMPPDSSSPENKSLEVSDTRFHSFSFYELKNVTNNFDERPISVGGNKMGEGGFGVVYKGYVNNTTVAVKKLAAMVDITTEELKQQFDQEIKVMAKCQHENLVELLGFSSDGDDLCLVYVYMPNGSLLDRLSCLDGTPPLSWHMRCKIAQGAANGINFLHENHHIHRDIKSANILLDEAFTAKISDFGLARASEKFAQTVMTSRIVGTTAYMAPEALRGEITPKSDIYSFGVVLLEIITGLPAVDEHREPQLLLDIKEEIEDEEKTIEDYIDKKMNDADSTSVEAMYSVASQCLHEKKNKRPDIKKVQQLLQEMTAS
Method: The assays were performed in U-bottom 384-well plates. The final assay volume was 30 μL prepared from 15 μL additions of enzyme and substrates (fluoresceinated peptide and ATP) and test compounds in assay buffer (20 mM HEPES pH 7.2, 10 mM MgCl2, 0.015% Brij 35 and 4 mM DTT). The reaction was initiated by the combination of IRAK4 with substrates and test compounds. The reaction mixture was incubated at room temperature for 60 min. and terminated by adding 45 μL of 35 mM EDTA to each sample. The reaction mixture was analyzed on the Caliper LABCHIP® 3000 (Caliper, Hopkinton, Mass.) by electrophoretic separation of the fluorescent substrate and phosphorylated product. Inhibition data were calculated by comparison to no enzyme control reactions for 100% inhibition and vehicle-only reactions for 0% inhibition. The final concentrations of reagents in the assays are ATP, 500 μM; FL-IPTSPITTTYFFFKKK peptide 1.5 μM; IRAK4, 0.6 nM; and DMSO, 1.6%.

[1] = Caco-2 Permeability Assay; type: in vitro ADME; details: human, test compound 3 μM, 2 hours at 37° C., direction not given
Method: Caco-2 Permeability Assay Protocol
Thirteen to 27 days prior to assay, Caco-2 cells were seeded onto collagen-coated polycarbonate filter membranes in 24-well transwell plates at a density of 1.45×10^5 cells/cm^2, approximately 4.8×10^4 cells per well. The cells were grown in a culture medium consisting of DMEM supplemented with 10% fetal bovine serum, 10 mM HEPES, 1% nonessential amino acids, 2 mM L-glutamine, 100 U/mL penicillin-G, and 100 μg/mL streptomycin. The culture medium was replaced every 3 days and the cells were maintained at 37° C. in a 95% relative humidity and 5% CO2 atmosphere. The cells were evaluated for tight junction formation just prior to assay. The test compound was solubilized to 10 mM in 100% DMSO and diluted to 3 μM in assay buffer. Permeability studies were initiated by adding 200 μL assay buffer plus/minus compound to the apical transwell compartment and 600 μL assay buffer plus/minus compound to the basolateral compartment of the 24-well transwell low-binding cluster plate. For apical-to-basolateral (A to B) permeability (absorptive direction), buffer containing compound was placed in the apical compartment (donorwells), while buffer alone was placed in the corresponding basolateral compartments (receiverwells). For basolateral-to-apical (B to A) permeability (secretive direction), buffer containing compound was placed in the basolateral compartment (donor wells), while buffer alone was placed in the corresponding apical compartments (receiver wells). Transwells were then incubated for 2 hours at 37° C. in a 95% relative humidity and 5% CO2 atmosphere with gentle agitation. Following incubation, 100 μL was removed from each apical and basolateral compartment and transferred to 96-well low binding plates that had been previously loaded with 100 μL/well of acetonitrile containing 250 nM propranolol, 250 nM diclofenac, and 500 nM tolbutamide as internal standards. The samples were subsequently analyzed by LC-MS/MS to determine concentrations of compound.

SMILES | EC50 (Human whole blood) [µM] | IC50 (IRAK4) [µM] | Papp at 2 h, 3 μM [1] [nm/s]
CCCn1cc(-c2cnc(-c3cnc4cc(C#N)cnn34)cc2NC2CC2)nn1 [Example 18, 3-(4-(cyclopropylamino)-5-(1-propyl-1H-1,2,3-triazol-4-yl)pyridin-2-yl)imidazo[1,2-b]pyridazine-7-carbonitrile] | 0.18 | 0.002 | 225
CC(C)(O)CCc1cn(-c2cnc(-c3cnn4cc(C#N)cnc34)cc2N[C@H]2CC[C@H](F)C2)nn1 [Example 25, 3-(4-(((1S,3 S)-3-fluorocyclopentyl)amino)-5-(4-(3-hydroxy-3-methylbutyl)-1H-1,2,3-triazol-1-yl)pyridin-2-yl)pyrazolo[1,5-a]pyrimidine-6-carbonitrile] | 0.25 | 0.005 | 134

Next, values leading:

EC50 (Human whole blood) [µM] | IC50 (IRAK4) [µM] | Papp at 2 h, 3 μM [1] [nm/s] | SMILES
0.78 | 0.004 | 295 | CC(C)Nc1cc(-c2cnc3cc(C#N)cnn23)ncc1-n1cc(CCC(C)(C)O)nn1 [Example 22, 3-(5-(4-(3-hydroxy-3-methylbutyl)-1H-1,2,3-triazol-1-yl)-4-(isopropylamino)pyridin-2-yl)imidazo[1,2-b]pyridazine-7-carbonitrile]
0.62 | 0.003 | 136 | CC(C)Nc1cc(-c2cnc3cc(C#N)cnn23)ncc1-c1cnn(CCC(C)(C)O)c1 [Example 27, 3-(5-(1-(3-hydroxy-3-methylbutyl)-1H-pyrazol-4-yl)-4-(isopropylamino)pyridin-2-yl) imidazo[1,2-b]pyridazine-7-carbonitrile]
1.78 | 0.006 | 225 | CCCc1cn(-c2cnc(-c3cnc4cc(C#N)cnn34)cc2NC(C)C)nn1 [Example 15, 3-(4-(isopropylamino)-5-(4-propyl-1H-1,2,3-triazol-1-yl)pyridin-2-yl)imidazo[1,2-b]pyridazine-7-carbonitrile]
